Drawing on the METLIN SMRT retention time set (Domingo-Almenara et al. 2019), this text covers RP-LC retention time for 79 compounds.

The nature of the series: gradient 5% acetonitrile 3 min, to 50% in 2 min, to 85% in 15 min, held 3 min, 100 µL/min. Particulars: column: Zorbax Extend-C18 2.1 x 50 mm; eluents: water / acetonitrile, 0.1% formic acid. Put shortly: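 Standards, all pure, were combined into mixtures of ~100 molecules and run at 100 μL/min on a Zorbax Extend-C18 column (2.1 × 50 mm, 1.8 μm) with water and acetonitrile, each containing 0.1% formic acid. A coupled quadrupole time-of-flight mass spectrometer operated in positive and negative ionization mode. Retention time values come from computationally picked adduct peaks, each inspected manually.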
Regarding `CCCN(CC1CCOC1)C(=O)Nc1ccc(C)c(F)c1` (centres undefined), the RP-LC retention time was 857 s.

The compound `CC1=C(c2ccccc2)S(=O)(=O)N=C1N1CCCN(C(=O)c2ccco2)CC1` returned an RP-LC retention time of 719 s.

Compound `CCOc1cccc(CNC(=O)c2nnc(-c3ccc(S(=O)(=O)N(C)C)cc3)o2)c1` yielded an RP-LC retention time of 893 s.

For the compound `COc1cccc(-c2csc(Cc3nc(-c4cccs4)no3)n2)c1`, the RP-LC retention time is 1020 s.

`COc1ccc(-n2ncc3c(NC4CC4)ncnc32)cc1`: the RP-LC retention time was determined as 619 s.

On to `Cc1cc(=O)n2c3c(c4c(cc13)c(CN(C)C)cc(=O)n4C)OC2`, for which the RP-LC retention time came out at 601 s.

In turn, `CC(C)CCN1N=C(C(=O)N2CCOCC2)S(=O)(=O)c2ccc(Cl)cc21` gave an RP-LC retention time of 957 s.

`COC(=O)c1ccc(NC(=O)Cn2cccc(-c3nc(-c4ccc(F)cc4)no3)c2=O)cc1` registered an RP-LC retention time of 877 s.

On to `O=C(C1CCN(c2ccncc2)CC1)N1CCN(c2ncccn2)CC1`, for which the RP-LC retention time came to 570 s.

For `COc1ccc(C(=O)NCc2c(-c3ccccc3)nc3sc(C)nn23)cn1`, the RP-LC retention time is 774 s.

The compound `O=C(NCCn1ncccc1=O)Nc1ccc(OC(F)(F)F)cc1` yielded an RP-LC retention time of 674 s.

As to `CCOC(=O)c1cc(C2CC2)nc2c1c(=O)n(CC(=O)NC1CCCC1)c(=O)n2C`, the RP-LC retention time came to 952 s.

The compound `O=S(=O)(Nc1ccc(F)cc1)c1cccnc1Nc1ccc(Cl)cc1` yielded an RP-LC retention time of 1120 s.

Compound `CNC(=O)N1CCCC(c2cccc(C(=O)NCc3cc(OC)ccc3OC)c2)C1` (centres undefined) came in with an RP-LC retention time of 766 s.

`O=C(CSc1cc(N2CCCC2)ncn1)NCc1cccs1` came in with an RP-LC retention time of 601 s.

For `Cc1ccc(-c2noc(C3CCCN3S(=O)(=O)c3ccc(C(C)(C)C)cc3)n2)cc1` (centres undefined), the RP-LC retention time turned out to be 788 s.

Regarding `CCOc1cccc(-c2noc(Cn3ccnc3)n2)c1`, the RP-LC retention time turned out to be 635 s.

`Cc1ccc(-n2nc3c(N4CCCC(C(=O)NCc5ccccc5Cl)C4)nnc(C)c3c2C)cc1` (centres undefined) had an RP-LC retention time of 804 s.

In turn, `Cc1nc2nc(-c3ccc(C(C)(C)C)cc3)nn2c(C)c1CC(=O)N1CCN(CCO)CC1` gave an RP-LC retention time of 657 s.

Regarding `COC(=O)N1CCc2ccc(F)cc2C1C(=O)Nc1ccc(OC)c(Cl)c1` (centres undefined), the RP-LC retention time came out at 874 s.

With `COc1cc(OC)c(NC(=O)Cn2cc3c(n2)CCC(C)C3)cc1Cl` (centres undefined), the RP-LC retention time was found to be 999 s.

`Cc1nc(N2CCCC2)c2c(C(=O)Nc3ccc(C)c(C)c3)c(C)oc2n1` showed an RP-LC retention time of 830 s.

`CCn1cc(-c2ccccc2)cc1C(=O)NCc1ccccn1`: the RP-LC retention time was 703 s.

`CCOc1cccc(-c2noc(CCn3nc(-c4ccc(F)cc4)ccc3=O)n2)c1` showed an RP-LC retention time of 1060 s.

The compound `CCC(=O)Nc1ccc(CCc2nc3ccc(C(=O)NCCC4=CCCCC4)cc3[nH]2)cc1` had an RP-LC retention time of 696 s.

For `Cn1cc(CN2CCn3c(nnc3[C@@H]3C[C@@H](O)CN3Cc3cccnc3)C2)c2ccccc21`, the RP-LC retention time came out at 575 s.

The compound `CCc1nc2cc(-c3noc(-c4ccc(F)cc4)n3)ccc2o1` registered an RP-LC retention time of 1190 s.

The compound `CC(C)CN(C[C@@H](O)[C@H](Cc1ccccc1)NC(=O)O[C@H]1CO[C@H]2OCC[C@H]21)S(=O)(=O)c1ccc(N)cc1` gave an RP-LC retention time of 830 s.

In turn, `Fc1cc(F)cc(-c2nnc(Cc3nc(-c4cccnc4)no3)o2)c1` had an RP-LC retention time of 805 s.

For the compound `COC(=O)Cn1c(C2CC(=O)N(c3cc(Cl)ccc3OC)C2)nc2ccccc21` (centres undefined), the RP-LC retention time was 758 s.

As to `Cc1sc(NC(=O)c2ccccc2)nc1-c1ccc2c(c1)NC(=O)C(C)O2` (centres undefined), the RP-LC retention time was 931 s.

`Cc1ccc(CNC(=O)c2ccc3c(c2)ncn3CCN2CCCC2)cc1C` yielded an RP-LC retention time of 595 s.

With `Cc1c(-c2ccnc(N3CCN(C)CC3)n2)cnc2nc(-c3cccs3)nn12`, the RP-LC retention time was 601 s.

In turn, `CCOc1ccc(N2C(=O)C3N=NN(Cc4nc(-c5ccccc5OCC)no4)C3C2=O)cc1` (centres undefined) displayed an RP-LC retention time of 980 s.

Regarding `COc1cc(Cc2nc(-c3ccc4nnc(C)n4c3)no2)cc(OC)c1`, the RP-LC retention time came out at 796 s.

On to `COc1ccc(Cl)c2c(=O)c3c([nH]c12)CCN(CC(=O)Nc1ccc(C)cc1)C3`, for which the RP-LC retention time is 632 s.

Compound `CCc1cc(=O)n(CC(=O)Nc2ccc(OC)c(OC)c2)c(N2CCOCC2)n1` displayed an RP-LC retention time of 646 s.

On to `CCc1cccc(-n2nnc(C(=O)N3CCC4(CC3)OCCO4)c2-c2ccncc2)c1`, for which the RP-LC retention time was 744 s.

`O=C(COc1ccccc1)N1CCC(CNS(=O)(=O)Cc2cccc(F)c2)CC1` yielded an RP-LC retention time of 782 s.

`Cc1c(Cl)cccc1S(=O)(=O)N1CCN(c2nc3ccncc3n(C)c2=O)CC1` yielded an RP-LC retention time of 732 s.

`O=C(Cn1ncc2c(c1=O)N(C1CC1)C(=O)CS2)NCCC1=CCCCC1` displayed an RP-LC retention time of 754 s.

The compound `Cc1cc(C)cc(NC(=O)Cn2c(=O)nc(N3CCCC(C)C3)c3ccccc32)c1` (centres undefined) returned an RP-LC retention time of 913 s.

On to `O=C(NCCc1ccccn1)C1CCc2nc(N3CCCCC3)ncc2C1` (centres undefined), for which the RP-LC retention time is 575 s.

On to `COc1ccc(Cl)cc1NC(=O)N1CCC2(CC1)N=C(c1ccccc1)C(=O)N2`, for which the RP-LC retention time came to 909 s.

Take `Cc1ccnc(N2CCCC(C(=O)N3CCN(C)CC3)C2)n1` (centres undefined): the RP-LC retention time is 538 s.

Turning to `CCSCCOC(=O)C1=C(C)NC2=C(C(=O)CC(C)(C)C2)C1c1ccccn1` (centres undefined), the RP-LC retention time came out at 648 s.

`Cc1cc(C)c(NC(=O)Cn2cnc(C)c(C)c2=O)c(C)c1`: the RP-LC retention time was found to be 674 s.

Regarding `Cc1ccc(CNC(=O)C2(C)CCCN(C(=O)NCCC(C)C)C2)cc1` (centres undefined), the RP-LC retention time came out at 910 s.

In the case of `Cc1ccc(NC(=O)NCC(c2cccnc2)c2cn(C)c3ccccc23)cc1` (centres undefined), the RP-LC retention time was 816 s.

As for `Fc1ccc(-c2noc(Cc3nc(-c4cccc(Cl)c4)cs3)n2)cc1`, the RP-LC retention time was determined as 1350 s.

For the compound `O=C(Nc1ccc(F)c(F)c1)c1c(O)c2cccnc2n(Cc2ccccc2)c1=O`, the RP-LC retention time worked out at 1140 s.

Compound `Cc1cccnc1Nc1nc(-c2ccc(F)cc2)cs1` yielded an RP-LC retention time of 870 s.

`Cc1c(Cl)cccc1S(=O)(=O)N1CCCC1c1nc(-c2cccc(F)c2)no1` (centres undefined): the RP-LC retention time is 1220 s.

The compound `COc1cc(CCNC(=O)c2c(N3CCCC3=O)c3cc(F)ccc3n2C)cc(OC)c1OC` came in with an RP-LC retention time of 762 s.

Consider `COC(CNC(=O)c1cc(C)nn1-c1ccccc1)OC`, for which the RP-LC retention time is 659 s.

For the compound `Cc1ccc(S(=O)(=O)N2CCC(CCC(=O)NCc3ccccc3)CC2)cc1`, the RP-LC retention time stood at 873 s.

Regarding `CC(=O)Oc1ccc2ccc(=O)oc2c1OC(C)=O`, the RP-LC retention time was found to be 856 s.

The compound `Cc1cccc(C(=O)Nc2nc(-c3ccc4c(c3)N(C)C(=O)C(C)O4)cs2)c1` (centres undefined) yielded an RP-LC retention time of 1050 s.

`COc1ccccc1-c1nocc1CCC(=O)O` registered an RP-LC retention time of 686 s.

In turn, `O=C(Cn1cccc1-c1nc(-c2ccc(Cl)cc2)cs1)N1CCN(c2ncccn2)CC1` displayed an RP-LC retention time of 1100 s.

As for `COCCN1CC2(CCN(S(=O)(=O)c3cc(F)cc(F)c3)CC2)C1c1ccccc1` (centres undefined), the RP-LC retention time turned out to be 718 s.

For `CN1c2ccc(Cl)cc2C(=O)NC12CCN(C(=O)c1ccccc1)CC2`, the RP-LC retention time amounted to 793 s.

`COCCN(CCNC(=O)c1cc(-c2ccccn2)nc2ccccc12)Cc1ccco1`: the RP-LC retention time is 660 s.

Consider `O=C(c1cc2c(s1)CCC(C(=O)N1CCN(c3ccccn3)CC1)C2)N1CCOCC1` (centres undefined), for which the RP-LC retention time is 582 s.

`Cc1ccc2snc(C(=O)NC(C)C)c2c1`: the RP-LC retention time was 986 s.

For `COc1ccccc1-c1nnc(-c2ccc(C)c(S(=O)(=O)N3CCCC3)c2)o1`, the RP-LC retention time came to 966 s.

`CCOC(=O)Cc1ccc(NC(=O)NCc2c(C)nn(CC)c2C)cc1`: the RP-LC retention time is 649 s.

As to `CCN1C(=O)CCc2cc(NS(=O)(=O)c3c(C)cccc3Cl)ccc21`, the RP-LC retention time turned out to be 846 s.

In turn, `Cc1ccc(NS(=O)(=O)c2cc(-c3[nH]ncc3C(=O)N3CCCCC3)oc2C)c(F)c1` had an RP-LC retention time of 806 s.

For the compound `CSc1cccc(NC(=O)N2CCN(c3cc(C)nc(N4CCCC4)n3)CC2)c1`, the RP-LC retention time worked out at 696 s.

Consider `COc1ccccc1NC(=O)Cc1csc2nc(-c3ccc(OC)c(OC)c3)cn12`, for which the RP-LC retention time was found to be 734 s.

`COc1ccc(S(=O)(=O)CCCC(=O)Nc2nccs2)cc1` yielded an RP-LC retention time of 661 s.

`COc1cc(-c2noc(CCn3nc(-c4ccc(F)cc4)ccc3=O)n2)cc(OC)c1OC` registered an RP-LC retention time of 887 s.

`COc1ccccc1C1NC(=O)NC(C)=C1C(=O)OC1CCCC1C` (centres undefined): the RP-LC retention time is 924 s.

With `COc1ccc(-c2n[nH]c3c2C(c2ccc(OC)c(OC)c2)NC3=O)cc1` (centres undefined), the RP-LC retention time was found to be 637 s.

`CCCC(CCC)C(=O)N1CCC(Cc2nnc(C3CCOCC3)o2)C1` (centres undefined) yielded an RP-LC retention time of 755 s.

In turn, `Cc1ccc(C)c(NC(=O)Cn2nc(N(C)C)c3ccccc3c2=O)c1` yielded an RP-LC retention time of 862 s.

As to `COc1cccc(-c2ccc(=O)n(CCc3nc(-c4ccc5c(c4)OCO5)no3)n2)c1`, the RP-LC retention time came out at 804 s.

On to `Cc1ccsc1C(=O)Nc1cnn(-c2ncncc2N2CCC(C)CC2)c1`, for which the RP-LC retention time came to 918 s.
